{"source": "patent US20260166182A1", "about": "“CYANINE-BASED FLUOROPHORES” (The General Hospital Corporation, priority 2022, published 2026)", "key": {"LLC and Raw264.7 cells": {"test_system": "LLC and Raw264.7 cells", "assay": "In vitro inhibition study of SH1 cellular uptake", "assay_type": "cell-based", "conditions": "2 μM SH1, 15 min", "method": "In vitro inhibition study: LLC and Raw264.7 cells were seeded and incubated at a density of 20,000 cells/plate in a 24-well plate. […] Cells were then incubated with 2 μM of SH1 at 37° C. for 15 min. […] After washing twice with HBSS buffer, the cells were imaged using a Nikon TE2000 epifluorescence microscope (TE2000U; Nikon) equipped with a 75-W xenon light source, NIR-compatible optics, and a NIR-compatible 4×, 10×, and 20× Plan Fluor objective lens (Nikon, Melville, NY) with a customized filter set."}, "[1]": {"test_system": "lung carcinoma (LLC cell line)", "assay": "NIR-II fluorescence imaging of subcutaneous LLC tumor-bearing C57BL/6 mice", "assay_type": "in vivo, mouse", "text": "General NIR-II fluorescence imaging: A 640×512-pixel InGaAs camera (Ninox640, Raptor Photonics) and macro zoom lens (0-10×; Navitar Zoom 7000 with SWIR coating) along with 900, 1070, 1100, and 1200 nm long-pass (LP) filters from either Thorlab or Edmund optics were used to collect the NIR-II signal. InGaAs camera played a role as an open-air imaging system along with the support of the FLARE system. An 808 nm fiber-coupled diode laser ([…] at the sample) was used as an excitation source. Data acquisition was done using in-house developed software. […] Mice were imaged with intact skin using InGaAs camera. At least 3 mice were analyzed for each sample. Tumor-bearing mouse models: Animals were housed in an AAALAC-certified facility and were studied under the protocols approved by the MGH IACUC (2016N000136). Mice were maintained under anesthesia with isoflurane and oxygen during the experiment. To establish the various tumor-bearing mouse models including lung carcinoma, pancreatic ductal adenocarcinoma (PDAC), and triple negative breast adenocarcinoma, eight-week-old C57BL/6 mice (Taconic Farms, Germantown, NY) were subcutaneously injected with 2×10^5 LLC, Pan02, and E0771 cells suspended in DMEM/Matrigel (100 μL, 50 v/v %) in the flank region, respectively. Female C57BL/6 mice were used for the breast cancer (E0771) model, otherwise male mice were used. […] Statistical analysis: The fluorescence and background intensities of a region of interest over each tissue were quantified using customized imaging software and ImageJ v1.48 (National Institutes of Health, Bethesda, MD). The signal-to-background ratio (SBR) was calculated as SBR=fluorescence/background, where background was the fluorescence intensity of muscle. Data were reported as mean±s.e.m. with a minimum of three biological replicates. Student's t-test statistical analysis was performed to evaluate the significance of the experimental data. The differences among groups were determined using one-way ANOVA analysis to assess the statistical differences among more than two groups. […] The data was indicated with *p<0.05, ** p<0.01, *** p<0.001, and **** p<0.0001."}, "[2]": {"assay": "Optical study in EtOH, DMSO, HEPES and PBS", "assay_type": "physicochemical", "method": "(§1) Optical Study, Photostability, Physicochemical Properties, and DFT Calculation: 1 mM stock solution in DMSO of the synthesized fluorophores was prepared before starting any spectral measurement. Optical properties for the synthesized fluorophores were measured in four different solvents (EtOH, DMSO, HEPES, and PBS). Absorbance spectra were measured in a Varian Cary 50 absorbance spectrophotometer (190-1100 nm). Fluorescence emission and photostability were measured and emission spectra were recorded on a Shimadzu RF-5301PC spectrofluorometer. Physicochemical properties (Log D, molecular mass, TPSA, H bond D/A, polarizability, molecular volume, and rotatable bonds) were predicted by ChemAxon (JChem plugin). Theoretical calculations of frontier molecular orbitals (FMOs) for the optimized structures of selected fluorophores were calculated based on DFT calculations at the B3LYP/6-311G(d,p) level.\nIn vivo success of a contrast agent can depend on the absorption and emission profiles, molar extinction coefficient, quantum yield, molecular brightness, physicochemical properties, and photochemical stability. Different types of polymethine bridges can have an impact on the structural geometry of the fluorophores and the absorption and emission profiles. Optical properties were measured in polar protic EtOH, polar aprotic DMSO, and two buffer solutions, phosphate-buffered saline (PBS, PH ˜7.4) and 4-(2-hydroxyethyl)-1-piperazine-ethanesulfonic acid (HEPES, PH ˜7.4). Organic solvents such as ethanol (EtOH) and dimethyl sulfoxide (DMSO) are often used in spectroscopic experiments to observe the absorption and emission maximum, whereas buffer solvents PBS and HEPES were used to mimic the biological environment, as these synthesized fluorophores are intended to be used in bioimaging. The absorbance profiles of these fluorophores were recorded at various concentrations (0.8, 1.6, 2.4, 3.2, 4.0 μM) and the absorbance values obtained were plotted against each of the concentrations. […] Fluorophores 18-21 refer to the labels in Example 4 and FIG. 7D.\nThe molar extinction coefficient is an intrinsic property of any fluorophore and can be important for high image resolution. […] These properties vary with the structure change and are difficult to predict beforehand. The optical properties of the synthesized fluorophores were measured in various media. All measurements were performed in 2 different organic solvents (EtOH and DMSO) and 2 different buffer (HEPES and PBS), and ICG was used as a reference (ΦICG=0.043)."}, "[3]": {"assay": "In vivo biodistribution study of NIR fluorophores in CD-1 mice", "design": "species or system mouse", "conditions": "25 nmol intravenous, 4 h post-injection", "method": "In Vivo Biodistribution Study of NIR Fluorophores: Under the supervision of the MGH IACUC, animals were housed in an AAALAC-certified facility and studied according to institutional protocol #2016N000136. In preparation for injection, CD-1 mice (25-30 g, 6 weeks, Charles River Laboratories, Wilmington, MA) were anesthetized with isoflurane and oxygen. A 10 mM stock solution of NIR fluorophores was prepared in DMSO, and 25 nmol of each molecule was diluted in BSA-containing saline (5 wt/v %) for intraoperative imaging. After 4 h post-injection, mice were imaged. For each experiment, camera exposure time and image normalization were held constant.\nQuantitative Analysis: The fluorescence and background intensity of a region of interest (ROI) over each tissue was quantified using ImageJ software (NIH, Bethesda, MD) version 1.45q. The signal-to-background ratio (SBR) was calculated as SBR=fluorescence/background, where background is the signal intensity of neighboring tissues such as muscle. All NIR fluorescence images for a particular fluorophore were normalized identically for all conditions of an experiment."}, "[4]": {"assay": "Photostability under xenon lamp irradiation", "assay_type": "physicochemical", "conditions": "2 h", "method": "as §1\nIn consideration of theranostic (therapeutics and diagnostic) applications, NIR cyanine fluorophores are synthesized for fluorescence imaging, photodynamic therapy (PDT), photothermal therapy (PTT), optoacoustic imaging, and cancer immunotherapy. One of the approaches before using these fluorophores in those applications is to study their biodistribution and clearance pattern in vivo. […] The power density of 150 W is much higher than the required power for fluorescence imaging, considering that the time it takes for a fluorophore to clear from the background and accumulate in sufficient quantities in the targeted tissues is unknown. […] By considering this, an aliquot of the stock solution (1 mM in DMSO) was diluted in ethanol, and the fluorescence intensity was measured at the excitation wavelength same as their absorption maxima (nm). Photodegradation rates were measured every 20 min intervals for the selected fluorophores based on the % reduced fluorescence intensity starting from 100%. […] The data were collected in every 20 min intervals under continuous irradiation with a xenon lamp at 150 W for 2 h and presented based on the % reduced fluorescence intensity starting from 100%. […]"}}, "note": "“Also recorded” adds a separate entry of the source."}
{"smiles": "CCN1/C(=C/c2ccc3ccccc3[n+]2CC)C=Cc2ccccc21.[I-]", "note": "[D22, 1,1′-Diethyl-2,2′-cyanine iodide]", "values": [{"measurement": "effect of inhibitor pretreatment on SH1 cellular uptake", "setting": "LLC and Raw264.7 cells", "result": "Neither bromosulphophthalein, cyclosporin A (both OATP inhibitors), D22 (OCT inhibitor), nor MK-571 (ABC transporter inhibitor) significantly inhibited SH1 uptake"}]}
{"smiles": "CN(C)C(=O)CCSC(SCCC(=O)O)c1cccc(/C=C/c2ccc3ccc(Cl)cc3n2)c1", "note": "(stereo not drawn) [MK-571]", "values": [{"measurement": "effect of inhibitor pretreatment on SH1 cellular uptake", "setting": "LLC and Raw264.7 cells", "result": "Neither bromosulphophthalein, cyclosporin A (both OATP inhibitors), D22 (OCT inhibitor), nor MK-571 (ABC transporter inhibitor) significantly inhibited SH1 uptake"}]}
{"smiles": "O=C1NC(=NS(=O)(=O)c2cccc3ccccc23)S/C1=C\\c1ccc(Br)cc1", "note": "[Pitstop 2]", "values": [{"measurement": "effect of inhibitor pretreatment on SH1 cellular uptake", "setting": "LLC and Raw264.7 cells", "result": "did not result in any appreciable change in cellular uptake"}]}
{"smiles": "CCCCN1/C(=C/C=C/C=C/C=C/C2=[N+](CCCC)c3ccc(Cl)cc3C2(C)C)C(C)(C)c2cc(Cl)ccc21", "note": "[SH2, 1-butyl-2-((1E,3E,5E)-7-((E)-1-butyl-5-chloro-3,3-dimethylindolin-2-ylidene)hepta-1,3,5-trien-1-yl)-5-chloro-3,3-dimethyl-3H-indol-1-ium iodide]", "values": [{"measurement": "NIR-II signal intensity of abdominal and dissected tumor image", "setting": "[1]; NIR-II region", "result": "low signal intensity in NIR-II region"}]}
{"smiles": "CCCCN1/C(=C/C=C2\\CCCC(/C=C/C3=[N+](CCCC)c4ccccc4C3(C)C)=C2Cl)C(C)(C)c2ccccc21", "note": "[SH21, 1-butyl-2-((E)-2-((E)-3-(2-((E)-1-butyl-3,3-dimethylindolin-2-ylidene)ethylidene)-2-chlorocyclohex-1-en-1-yl)vinyl)-3,3-dimethyl-3H-indol-1-ium iodide]", "values": [{"measurement": "circulation in the blood stream", "setting": "[1]; 48 h post-injection", "result": "circulating in the blood stream at 48 h post injection"}, {"measurement": "quantum yield", "setting": "[2]; EtOH", "result": 0.33}, {"measurement": "quantum yield", "setting": "[2]; PBS", "result": 0.01}, {"measurement": "molecular brightness", "setting": "[2]; highest observed", "result": "79,664 cm^−1 M^−1"}, {"measurement": "tissue/organ signals", "setting": "[3]", "result": "high background signals; also recorded: higher background tissue uptake"}]}
{"smiles": "O=C1OC(c2ccc(O)c(S(=O)(=O)O)c2)(c2ccc(O)c(S(=O)(=O)O)c2)c2c(Br)c(Br)c(Br)c(Br)c21", "note": "[bromosulphophthalein, bromsulphthalein]", "values": [{"measurement": "effect of inhibitor pretreatment on SH1 cellular uptake", "setting": "LLC and Raw264.7 cells", "result": "Neither bromosulphophthalein, cyclosporin A (both OATP inhibitors), D22 (OCT inhibitor), nor MK-571 (ABC transporter inhibitor) significantly inhibited SH1 uptake"}]}
{"smiles": "O=C(N/N=C/c1cc(O)c(O)cc1O)c1cc2ccccc2cc1O", "note": "[dingo 4a]", "values": [{"measurement": "effect of inhibitor pretreatment on SH1 cellular uptake", "setting": "LLC and Raw264.7 cells", "result": "significantly inhibited the internalization"}]}
{"smiles": "CC1(C)C(/C=C/C2=C(Cl)C(=C/C=C3/N(CCCc4ccccc4)c4ccc(Cl)cc4C3(C)C)/CCC2)=[N+](CCCc2ccccc2)c2ccc(Cl)cc21.[Br-]", "note": "[fluorophore 19, 5-Chloro-2-((E)-2-((E)-2-chloro-3-(2-((E)-5-chloro-3,3-dimethyl-1-(3-phenylpropyl)indolin-2-ylidene)ethylidene)cyclohex-1-en-1-yl)vinyl)-3,3-dimethyl-1-(3-phenylpropyl)-3H-indol-1-ium Bromide]", "values": [{"measurement": "emission wavelength", "setting": "[2]; DMSO", "result": 817, "unit": "nm"}, {"measurement": "photodegradation (% reduced fluorescence intensity)", "setting": "[4]", "result": "7-12%"}]}
{"smiles": "CCCCN1/C(=C/C=C2\\CCCC(/C=C/C3=[N+](CCCC)c4ccc(Br)cc4C3(C)C)=C2Cl)C(C)(C)c2cc(Br)ccc21.[I-]", "note": "[fluorophore 20, 5-Bromo-2-((E)-2-((E)-3-(2-((E)-5-bromo-1-butyl-3,3-dimethylindolin-2-ylidene)ethylidene)-2-chlorocyclohex-1-en-1-yl)vinyl)-1-butyl-3,3-dimethyl-3H-indol-1-ium Iodide]", "values": [{"measurement": "quantum yield", "setting": "[2]; PBS", "result": 0.01}, {"measurement": "tissue/organ signals", "setting": "[3]", "result": "high signals in the primary and secondary lymphoid tissues"}]}
